Results on 24 compounds are retold here after ChEMBL document CHEMBL1142695, “Discovery of functionally selective 7,8,9,10-tetrahydro-7,10-ethano-1,2,4-triazolo[3,4-a]phthalazines as GABA A receptor agonists at the alpha3 subunit” (J Med Chem, 2005).

What all share (assay type): cell-based
Test [1] concerns the target T1, GABA-A receptor; alpha-5/beta-3/gamma-2 (Homo sapiens, UniProt P18507+P28472+P31644).
T1 sequence (P18507 whole entry): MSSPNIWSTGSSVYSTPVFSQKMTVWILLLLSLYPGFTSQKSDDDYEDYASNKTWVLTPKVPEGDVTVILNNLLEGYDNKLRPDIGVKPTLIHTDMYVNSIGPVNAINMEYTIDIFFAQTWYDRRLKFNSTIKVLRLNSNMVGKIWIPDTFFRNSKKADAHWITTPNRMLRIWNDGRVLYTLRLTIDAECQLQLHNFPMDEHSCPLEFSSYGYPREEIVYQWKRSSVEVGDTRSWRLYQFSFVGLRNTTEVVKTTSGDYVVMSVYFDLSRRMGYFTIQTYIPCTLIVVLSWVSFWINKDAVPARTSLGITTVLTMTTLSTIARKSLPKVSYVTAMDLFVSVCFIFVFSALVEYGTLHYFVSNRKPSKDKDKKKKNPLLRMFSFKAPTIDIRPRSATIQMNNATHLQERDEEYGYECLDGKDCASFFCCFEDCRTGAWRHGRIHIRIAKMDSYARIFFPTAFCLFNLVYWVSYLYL
T1 sequence (P28472 whole entry): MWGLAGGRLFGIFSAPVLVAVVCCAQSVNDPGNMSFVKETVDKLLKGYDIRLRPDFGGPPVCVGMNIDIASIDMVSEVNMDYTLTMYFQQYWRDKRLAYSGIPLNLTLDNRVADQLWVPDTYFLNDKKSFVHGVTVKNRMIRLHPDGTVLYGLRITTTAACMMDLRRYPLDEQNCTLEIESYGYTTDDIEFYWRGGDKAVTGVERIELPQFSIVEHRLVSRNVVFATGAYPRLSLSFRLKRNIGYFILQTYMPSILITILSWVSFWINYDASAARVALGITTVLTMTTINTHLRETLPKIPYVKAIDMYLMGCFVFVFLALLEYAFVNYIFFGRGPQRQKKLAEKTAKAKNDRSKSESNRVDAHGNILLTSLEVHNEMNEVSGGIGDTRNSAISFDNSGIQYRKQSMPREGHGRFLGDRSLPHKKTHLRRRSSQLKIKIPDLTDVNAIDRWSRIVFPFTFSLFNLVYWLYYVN
T1 sequence (P31644 whole entry): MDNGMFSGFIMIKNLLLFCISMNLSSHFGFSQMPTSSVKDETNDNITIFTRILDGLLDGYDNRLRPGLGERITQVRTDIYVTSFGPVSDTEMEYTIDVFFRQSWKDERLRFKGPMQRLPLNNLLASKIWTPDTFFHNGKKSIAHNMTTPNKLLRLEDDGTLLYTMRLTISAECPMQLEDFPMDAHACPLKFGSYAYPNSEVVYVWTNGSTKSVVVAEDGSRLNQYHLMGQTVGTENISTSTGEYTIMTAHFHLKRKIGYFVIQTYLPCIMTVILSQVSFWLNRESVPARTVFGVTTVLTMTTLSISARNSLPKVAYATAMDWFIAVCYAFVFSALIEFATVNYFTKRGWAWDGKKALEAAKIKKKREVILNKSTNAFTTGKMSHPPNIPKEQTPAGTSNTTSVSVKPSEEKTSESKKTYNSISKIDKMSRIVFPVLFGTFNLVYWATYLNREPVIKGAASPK
The experiment in a line: Inhibition of [3H]Ro-151788 binding to recombinant human gamma-aminobutyric-acid A receptor alpha-5-beta-3-gamma-2 subtype expressed in L (tk-) cells.

Test [2] addresses T2, GABA-A receptor; alpha-2/beta-3/gamma-2 (Homo sapiens, UniProt P18507+P28472+P47869).
T2 sequence (P18507 whole entry): T1 sequence (P18507 whole entry)
T2 sequence (P28472 whole entry): T1 sequence (P28472 whole entry)
T2 sequence (P47869 whole entry): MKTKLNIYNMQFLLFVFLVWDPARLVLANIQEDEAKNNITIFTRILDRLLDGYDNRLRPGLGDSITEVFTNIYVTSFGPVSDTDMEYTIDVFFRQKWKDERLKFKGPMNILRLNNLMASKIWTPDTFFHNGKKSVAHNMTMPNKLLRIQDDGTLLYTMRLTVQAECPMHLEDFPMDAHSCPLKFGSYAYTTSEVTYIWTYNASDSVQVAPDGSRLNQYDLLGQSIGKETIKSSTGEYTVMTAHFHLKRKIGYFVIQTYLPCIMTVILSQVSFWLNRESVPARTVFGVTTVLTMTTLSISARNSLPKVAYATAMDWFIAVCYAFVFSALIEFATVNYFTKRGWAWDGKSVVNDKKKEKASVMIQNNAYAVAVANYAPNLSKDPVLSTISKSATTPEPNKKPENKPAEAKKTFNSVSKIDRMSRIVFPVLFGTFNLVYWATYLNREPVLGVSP
The test is described as follows: Inhibition of [3H]Ro-151788 binding to recombinant human gamma-aminobutyric acid A receptor alpha-2-beta-3-gamma-2 subtype expressed in L (tk-) cells.

Test [3] addresses T3, GABA-A receptor; alpha-3/beta-3/gamma-2 (Homo sapiens, UniProt P18507+P28472+P34903).
T3 sequence (P18507 whole entry): T1 sequence (P18507 whole entry)
T3 sequence (P28472 whole entry): T1 sequence (P28472 whole entry)
T3 sequence (P34903 whole entry): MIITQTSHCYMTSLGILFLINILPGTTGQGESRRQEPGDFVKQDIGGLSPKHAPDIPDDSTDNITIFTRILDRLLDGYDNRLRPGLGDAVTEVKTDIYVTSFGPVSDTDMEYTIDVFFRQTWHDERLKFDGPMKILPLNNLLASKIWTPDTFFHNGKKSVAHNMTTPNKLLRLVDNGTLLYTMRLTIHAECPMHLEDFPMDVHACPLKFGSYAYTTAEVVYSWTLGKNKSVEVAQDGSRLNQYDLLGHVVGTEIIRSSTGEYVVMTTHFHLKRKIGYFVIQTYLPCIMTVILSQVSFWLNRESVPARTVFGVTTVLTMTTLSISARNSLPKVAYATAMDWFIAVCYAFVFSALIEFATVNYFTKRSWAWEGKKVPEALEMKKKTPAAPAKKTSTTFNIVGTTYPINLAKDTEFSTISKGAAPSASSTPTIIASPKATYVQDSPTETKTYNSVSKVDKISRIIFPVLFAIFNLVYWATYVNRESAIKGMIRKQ
The test is described as follows: Inhibition of [3H]Ro-151788 binding to recombinant human gamma-aminobutyric-acid A receptor alpha-3-beta-3-gamma-2 subtype expressed in L (tk-) cells.

For test [4], the target named is T4, GABA-A receptor; alpha-1/beta-3/gamma-2 (Homo sapiens, UniProt P14867+P18507+P28472).
T4 sequence (P14867 whole entry): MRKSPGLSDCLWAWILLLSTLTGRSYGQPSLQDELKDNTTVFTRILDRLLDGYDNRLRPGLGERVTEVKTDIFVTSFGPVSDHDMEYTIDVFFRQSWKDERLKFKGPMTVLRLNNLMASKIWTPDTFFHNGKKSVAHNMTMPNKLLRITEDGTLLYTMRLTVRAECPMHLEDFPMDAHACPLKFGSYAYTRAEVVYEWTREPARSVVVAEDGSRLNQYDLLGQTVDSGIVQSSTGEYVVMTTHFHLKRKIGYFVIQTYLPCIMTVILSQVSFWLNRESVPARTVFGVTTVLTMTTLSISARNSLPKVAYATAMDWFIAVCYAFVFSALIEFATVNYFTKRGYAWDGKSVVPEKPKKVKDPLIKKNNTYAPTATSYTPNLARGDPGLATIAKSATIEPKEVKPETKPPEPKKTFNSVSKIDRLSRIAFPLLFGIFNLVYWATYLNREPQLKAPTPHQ
T4 sequence (P18507 whole entry): T1 sequence (P18507 whole entry)
T4 sequence (P28472 whole entry): T1 sequence (P28472 whole entry)
The experiment in a line: Inhibition of [3H]Ro-151788 binding to recombinant human gamma-aminobutyric-acid A receptor alpha-1-beta-3-gamma-2 subtype expressed in L (tk-) cells.

Each structure is given as a SMILES string. Bounds are passed on as bounds.

In general, Ki refers to a measure of affinity in units of concentration, obtained from inhibition or displacement. `Cc1ccccc1-c1nnc2c3c(c(OCc4ccccn4)nn12)C1CCC3CC1`: the Ki was 22 nM in test [1], 280 nM in test [2], 280 nM in test [3] and over 1000 nM in test [4].

As for `c1ccc(COc2nn3c(C4CC4)nnc3c3c2C2CCC3CC2)nc1`, the Ki stood at 1.8 nM in test [1], 24 nM in test [2], 18 nM in test [3] and 130 nM in test [4].

As for `OCC1CCC(COc2nn3c(-c4ccccc4)nnc3c3c2C2CCC3CC2)CC1` (stereo in doubt), the Ki in test [1] is 88 nM; in test [2], over 1000 nM; in test [3], over 1000 nM; in test [4], over 1000 nM.

For `CN1CCCC(COc2nn3c(-c4ccccc4)nnc3c3c2C2CCC3CC2)C1` (centres undefined), the Ki is 100 nM in test [1], 260 nM in test [2], 460 nM in test [3] and 750 nM in test [4].

`c1ccc(-c2nnc3c4c(c(OCc5cccs5)nn23)C2CCC4CC2)cc1`: the Ki in test [1], in test [2], in test [3] and in test [4] was over 500 nM throughout.

Take `Fc1ccccc1-c1nnc2c3c(c(OCc4ccccn4)nn12)C1CCC3CC1`: the Ki is 0.54 nM in test [1], 16 nM in test [2], 6.1 nM in test [3] and 28 nM in test [4].

With `N#Cc1ccc(COc2nn3c(-c4ccccc4)nnc3c3c2C2CCC3CC2)cc1`, the Ki in test [1] came out at 9.4 nM; in test [2], 110 nM; in test [3] it was 70 nM; in test [4], 310 nM.

As for `c1ccc(-c2nnc3c4c(c(OCc5nc6ccccc6s5)nn23)C2CCC4CC2)cc1`, the Ki is 23 nM in test [1], over 1000 nM in test [2], 250 nM in test [3] and over 1000 nM in test [4].

Take `N#Cc1ccccc1COc1nn2c(-c3ccccc3)nnc2c2c1C1CCC2CC1`: the Ki in test [1] was found to be 2.6 nM; in test [2], 83 nM; in test [3] it was 53 nM; in test [4], 190 nM.

With `OCc1cccc(COc2nn3c(-c4ccccc4)nnc3c3c2C2CCC3CC2)c1`, the Ki was 11 nM in test [1], 110 nM in test [2], 43 nM in test [3] and 490 nM in test [4].

Consider `Cc1cccc(CCCOc2nn3c(-c4ccccc4)nnc3c3c2C2CCC3CC2)n1`, for which the Ki in test [1] was determined as 30 nM; in test [2] it was 190 nM; in test [3], 240 nM; in test [4] it was 75 nM.

Take `O=C(COc1nn2c(-c3ccccc3)nnc2c2c1C1CCC2CC1)N1CCCC1`: the Ki in test [1] was 9 nM; in test [2] it was 160 nM; in test [3], 50 nM; in test [4] it was 230 nM.

For `Cc1noc(COc2nn3c(-c4ccccc4)nnc3c3c2C2CCC3CC2)n1`, the Ki in test [1] is 12 nM; in test [2] it was 250 nM; in test [3], 51 nM; in test [4] it was 290 nM.

On to `Cn1nnc(COc2nn3c(-c4ccccc4)nnc3c3c2C2CCC3CC2)n1`, for which the Ki in test [1] was 6.5 nM; in test [2] it was 57 nM; in test [3] it was 37 nM; in test [4], 60 nM.

As for `CN(C)C(=O)COc1nn2c(-c3ccccc3)nnc2c2c1C1CCC2CC1`, the Ki is 10 nM in test [1], 160 nM in test [2], 89 nM in test [3] and 220 nM in test [4].

Take `Cc1ccc(-c2nc3ccc(C)cn3c2CC(=O)N(C)C)cc1` [ZOLPIDEM]: the Ki in test [1] is over 3330 nM; in test [2], 103 nM; in test [3], 246 nM.

With `c1ccc(-c2nnc3c4c(c(OCc5ccc6ccccc6n5)nn23)C2CCC4CC2)cc1`, the Ki was determined as 9.5 nM in test [1], 200 nM in test [2], 77 nM in test [3] and 480 nM in test [4].

For the compound `c1ccc(-c2nnc3c4c(c(OCc5ccsc5)nn23)C2CCC4CC2)cc1`, the Ki in test [1], in test [2], in test [3] and in test [4] was over 500 nM in each case.

Take `Fc1ccc(-c2nnc3c4c(c(OCc5ccccn5)nn23)C2CCC4CC2)cc1`: the figures for the Ki in test [1], in test [2] and in test [4] were 27 nM, 180 nM and 310 nM, respectively.

As for `Cc1cnc(COc2nn3c(-c4ccccc4)nnc3c3c2C2CCC3CC2)s1`, the Ki in test [1] stood at 2 nM; in test [2], 28 nM; in test [3], 24 nM; in test [4], 100 nM.

Consider `c1ccc(-c2nnc3c4c(c(OCc5ncccn5)nn23)C2CCC4CC2)cc1`, for which the Ki in test [1] was 9.2 nM; in test [2], 68 nM; in test [3] it was 33 nM; in test [4], 87 nM.

With `Cc1cccc(-c2nnc3c4c(c(OCc5ccccn5)nn23)C2CCC4CC2)c1`, the inhibition constant (Ki) in test [1] was 17 nM; in test [2] it was 210 nM; in test [3] it was 140 nM; in test [4] it was 570 nM.

Turning to `c1ccc(COc2nn3c(-c4ccco4)nnc3c3c2C2CCC3CC2)nc1`, the inhibition constant (Ki) in test [1] is 5.3 nM; in test [2], 110 nM; in test [3], 53 nM; in test [4] it was 270 nM.

As to `O=C(Nc1ccccn1)c1nn2c(-c3ccccc3)nnc2c2c1C1CCC2CC1`, the Ki in test [1] is 40 nM; in test [2], 290 nM; in test [3], 170 nM; in test [4], over 1000 nM.
